Reference: patent US11584747B2, “Substituted pyridopyrimidinonyl compounds useful as T cell activators” (BRISTOL-MYERS SQUIBB COMPANY, priority 2019, dated 2023)

Key:
human DGKζ = human DGKζ (Homo sapiens (Human), UniProt Q13574); assay: DGKζ LIPGLO assay (extruded liposome substrate, ADP-Glo luminescence); type: biochemical; settings: liposome (LIPGLO) assay; read-out: DGK zeta (liposome assay) IC50
human DGKα = human DGKα (Homo sapiens (Human), UniProt P23743); assay: DGKα ADPGLO assay (detergent/lipid micelle substrate); type: biochemical; settings: ADPGLO assay; read-out: DGK alpha ADPGLO IC50
Description: DGK Alpha ADPGLO (Truncated) IC50 (uM)
The detergent/lipid micelle was prepared by combining 15 g phosphatidylserine (Avanti 840035P) and 1 g diacylglycerol (8008110) and dissolving into 150 mL chloroform in a 2 L round bottom flask. Chloroform was removed under high vacuum by rotary evaporation. […] The lipid/detergent solution was split into 5 mL aliquots and stored at −80° C.

whole blood (pERK) = assay: pERK Whole Blood; type: cell-based

Sequence of human DGKζ (Q13574 other isoform, or with tags, fused parts or gaps): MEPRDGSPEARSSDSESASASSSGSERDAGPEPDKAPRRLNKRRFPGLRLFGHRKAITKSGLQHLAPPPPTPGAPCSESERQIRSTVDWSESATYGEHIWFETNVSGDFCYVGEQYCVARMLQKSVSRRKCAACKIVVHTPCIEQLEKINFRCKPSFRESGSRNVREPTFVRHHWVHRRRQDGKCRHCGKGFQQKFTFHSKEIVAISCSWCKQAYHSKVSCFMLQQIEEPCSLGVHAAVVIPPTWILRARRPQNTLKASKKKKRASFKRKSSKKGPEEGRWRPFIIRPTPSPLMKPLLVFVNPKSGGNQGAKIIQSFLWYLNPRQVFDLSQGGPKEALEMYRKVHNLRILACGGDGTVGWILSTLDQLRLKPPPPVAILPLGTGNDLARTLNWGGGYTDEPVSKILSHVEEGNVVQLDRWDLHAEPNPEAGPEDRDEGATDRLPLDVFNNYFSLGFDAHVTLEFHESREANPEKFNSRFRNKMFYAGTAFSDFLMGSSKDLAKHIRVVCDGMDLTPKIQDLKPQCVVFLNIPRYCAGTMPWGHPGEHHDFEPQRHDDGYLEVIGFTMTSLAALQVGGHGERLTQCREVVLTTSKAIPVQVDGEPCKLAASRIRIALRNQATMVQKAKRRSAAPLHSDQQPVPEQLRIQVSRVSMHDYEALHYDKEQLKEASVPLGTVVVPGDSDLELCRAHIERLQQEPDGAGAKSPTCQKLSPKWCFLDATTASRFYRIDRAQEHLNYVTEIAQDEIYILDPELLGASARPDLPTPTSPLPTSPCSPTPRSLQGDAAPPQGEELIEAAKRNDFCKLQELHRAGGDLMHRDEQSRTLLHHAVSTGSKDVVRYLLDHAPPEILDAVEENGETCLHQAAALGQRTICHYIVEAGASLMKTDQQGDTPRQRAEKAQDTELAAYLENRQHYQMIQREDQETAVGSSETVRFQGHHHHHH
Sequence of human DGKα (P23743 whole entry, looked up, the tested form may be a part): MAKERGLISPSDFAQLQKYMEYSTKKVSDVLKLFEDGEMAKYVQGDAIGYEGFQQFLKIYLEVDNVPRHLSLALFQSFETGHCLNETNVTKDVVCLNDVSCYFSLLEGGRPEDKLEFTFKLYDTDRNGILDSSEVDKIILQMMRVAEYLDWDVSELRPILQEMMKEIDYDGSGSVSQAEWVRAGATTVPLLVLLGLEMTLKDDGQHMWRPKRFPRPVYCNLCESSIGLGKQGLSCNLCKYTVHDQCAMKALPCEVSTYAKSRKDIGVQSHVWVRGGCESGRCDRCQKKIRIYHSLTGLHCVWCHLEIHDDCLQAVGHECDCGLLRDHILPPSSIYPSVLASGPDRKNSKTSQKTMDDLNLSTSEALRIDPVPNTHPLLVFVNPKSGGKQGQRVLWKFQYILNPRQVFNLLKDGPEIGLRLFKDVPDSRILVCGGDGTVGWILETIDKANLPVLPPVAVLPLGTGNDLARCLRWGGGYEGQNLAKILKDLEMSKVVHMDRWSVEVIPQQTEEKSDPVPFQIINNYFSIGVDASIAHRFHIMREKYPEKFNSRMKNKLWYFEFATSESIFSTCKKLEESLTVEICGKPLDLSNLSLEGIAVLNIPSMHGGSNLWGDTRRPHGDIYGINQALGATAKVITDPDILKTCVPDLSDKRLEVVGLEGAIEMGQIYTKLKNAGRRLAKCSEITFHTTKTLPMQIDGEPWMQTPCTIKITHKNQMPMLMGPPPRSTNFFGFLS

Structure (SMILES)	IC50 (human DGKζ) [nM]	IC50 (human DGKα) [nM]	EC50 (whole blood (pERK)) [nM]
CC[C@@H]1CN(c2nc(=O)n(C)c3ccc(C(F)F)nc23)[C@@H](C)CN1C(C)c1ccc(C(F)(F)F)cc1 (stereo partly drawn) [Example 441, 6-(difluoromethyl)-4-((2S,5R)-5-ethyl-2-methyl-4-(1-(4-(trifluoromethyl)phenyl)ethyl)piperazin-1-yl)-1-methylpyrido[3,2-d]pyrimidin-2(1H)-one]	26900	190	700
CCC(N1C[C@H](C)N(c2nc(=O)n(C)c3ccc(C#N)nc23)C[C@H]1C)C12CC(C(F)(F)F)(C1)C2 (single isomer, unassigned) [Example 448]	5140	13400	20000
CCOC[C@@H]1CN(c2nc(=O)n(C)c3ccc(C#N)nc23)[C@@H](C)CN1C(CC)c1ccc(C(F)(F)F)cc1 (stereo partly drawn) [Example 401, 4-((2S,5S)-5-(ethoxymethyl)-2-methyl-4-(1-(4-(trifluoromethyl)phenyl)propyl)piperazin-1-yl)-1-methyl-2-oxo-1,2-dihydropyrido[3,2-d]pyrimidine-6-carbonitrile]	230	160	4890
CC(c1ccc(C(F)(F)F)cc1)N1C[C@H](CO)N(c2nc(=O)n(C)c3ccc(C#N)nc23)C[C@H]1C (single isomer, unassigned) [Example 407]	31000	400	640

Other lines, results leading:

IC50 (human DGKζ) [nM]	IC50 (human DGKα) [nM]	EC50 (whole blood (pERK)) [nM]	Structure (SMILES)
130	61	2980	CCC(c1ccc(OCC2COC2)cc1)N1C[C@H](C)N(c2nc(=O)n(C)c3ccc(C#N)nc23)C[C@H]1CC (stereo partly drawn) [Example 341, 4-((2S,5R)-5-ethyl-2-methyl-4-(1-(4-(oxetan-3-ylmethoxy)phenyl)propyl)piperazin-1-yl)-1-methyl-2-oxo-1,2-dihydropyrido[3,2-d]pyrimidine-6-carbonitrile]
57	320	2070	CCC(c1c(F)cc(OCC2CC2)cc1F)N1C[C@H](C)N(c2nc(=O)n(C)c3ccc(C#N)nc23)C[C@H]1CC (stereo partly drawn) [Example 327, 4-((2S,5R)-4-(1-(4-(cyclopropylmethoxy)-2,6-difluorophenyl)propyl)-5-ethyl-2-methylpiperazin-1-yl)-1-methyl-2-oxo-1,2-dihydropyrido[3,2-d]pyrimidine-6-carbonitrile]
100	81	54	CCC(c1ccc(OCC2CCOCC2)cc1)N1C[C@H](C)N(c2nc(=O)n(C)c3ccc(C#N)nc23)C[C@H]1CC (stereo partly drawn) [Example 337, 4-((2S,5R)-5-ethyl-2-methyl-4-(1-(4-((tetrahydro-2H-pyran-4-yl)methoxy)phenyl)propyl)piperazin-1-yl)-1-methyl-2-oxo-1,2-dihydropyrido[3,2-d]pyrimidine-6-carbonitrile]
33	38	940	CCC(c1ccc(C2OCCO2)cc1)N1C[C@H](C)N(c2nc(=O)n(C)c3ccc(C#N)nc23)C[C@H]1CC (stereo partly drawn) [Example 331, 4-((2S,5R)-4-(1-(4-(1,3-dioxolan-2-yl)phenyl)propyl)-5-ethyl-2-methylpiperazin-1-yl)-1-methyl-2-oxo-1,2-dihydropyrido[3,2-d]pyrimidine-6-carbonitrile]
740	5290	1560	CC[C@@H]1CN(c2nc(=O)n(C)c3ccc(C#N)nc23)[C@@H](C)CN1C(C)c1ccc(C2CCOCC2)cc1 (stereo partly drawn) [Example 329, 4-((2 S,5R)-5-ethyl-2-methyl-4-(1-(4-(tetrahydro-2H-pyran-4-yl)phenyl)ethyl)piperazin-1-yl)-1-methyl-2-oxo-1,2-dihydropyrido[3,2-d]pyrimidine-6-carbonitrile]
45	61	1950	CCC(c1ccc(OCc2nccs2)cc1)N1C[C@H](C)N(c2nc(=O)n(C)c3ccc(C#N)nc23)C[C@H]1CC (stereo partly drawn) [Example 348, 4-((2S,5R)-5-ethyl-2-methyl-4-(1-(4-(thiazol-2-ylmethoxy)phenyl)propyl)piperazin-1-yl)-1-methyl-2-oxo-1,2-dihydropyrido[3,2-d]pyrimidine-6-carbonitrile]
